Tests used:
SMARCA4 [1] = target: T1, SMARCA4 (Homo sapiens, UniProt P51532); experiment: SMARCA4 HiBiT degradation assay in HeLa cells; format: cell-based; design: SMARCA4-HiBiT knock-in Hela monoclonal cell (CS3023226) were purchased from Promega; host or cells: HeLa SMARCA4-HiBiT knock-in monoclonal cells (heterozygous); conditions: 18 hours; for Dmax: HeLa
Protocol: (§1) HiBiT peptide knock-in of SMARCA2 in LgBiT expressing HEK293T cells was performed by CRISPR-mediated tagging system as described Promega. The homozygous HiBiT knock-in on c-terminus SMARCA2 was confirmed by sanger sequence. SMARCA2-HiBiT knock-in Hela monoclonal cell (CS302366) and SMARCA4-HiBiT knock-in Hela monoclonal cell (CS3023226) were purchased from Promega. The heterozygous HiBiT-knock-in was confirmed by sanger sequence in both SMARCA2-HiBiT and SMARCA4-HiBiT monoclonal cells.
(§2) Dispense 10ul aliquot of prepared Hela-SMARCA2-HiBiT or Hela-SMARCA4-HiBiT cells (1:1 ratio of cells:Trypan Blue (#1450013, Bio-Rad)) onto cell counting slide (#145-0011, Bio-Rad) and obtain cell density and cell viability using cell counter (TC20, Bio-Rad). Remove appropriate volume of resuspended cells from culture flask to accommodate 2500 cells/well @20 μL/well. Transfer Hela-HiBiT cells to 50 mL conical (#430290, Corning). Spin down at 1000 rpm for 5 min using tabletop centrifuge (SPINCHRON 15, Beckman). Discard supernatant and resuspend cell pellet in modified EMEM (#30-2003, ATCC) cell culture media containing 10% FBS (F2422-500ML, Sigma), and 1× Penicillin/Streptomycin (200 g/L) (30-002-CI, Corning) to a cell density of 125,000 cells/mL. Dispense […] of resuspended Hela-HiBit cells per well in 384-well TC treated plate (#12-565-343, Thermo Scientific) using standard cassette (#50950372, Thermo Scientific) on Multidrop Combi (#5840310, Thermo Scientific) inside laminar flow cabinet.
(§3) The degrader compounds of Table 4 were dissolved in DMSO to make 10 mM stock and 3-fold series dilutions were further conducted keeping the highest concentration 10 μM. Dispense test compounds onto plates using digital liquid dispenser (D300E, Tecan). Incubate plates in humidified tissue culture incubator at 37° C. for 18 hours. Add […] of prepared Nano-Glo® HiBiT Lytic detection buffer (N3050, Promega) to each well of 384-well plate using small tube cassette (#24073295, Thermo Scientific) on Multidrop Combi, incubate at room temperature for 30-60 min. Read plates on microplate reader (Envision 2105, PerkinElmer) using 384 well Ultra-Sensitive luminescence mode. Raw data files and compound information reports are swept into centralized data lake and deconvoluted using automated scripts designed by TetraScience, Inc. Data analysis, curve-fitting and reporting done in Dotmatics Informatics Suite using Screening Ultra module.

SMARCA2 [2] = target: T2, SMARCA2 (Homo sapiens, UniProt P51531); experiment: SMARCA2 HiBiT degradation assay in HeLa cells; format: cell-based; conditions: 18 hours
Protocol: as §1, §2, §3

PSMA negative PC3 tumors = experiment: Tumor growth inhibition in PSMA negative PC3 tumors, weekly administration; format: in vivo, mouse; conditions: FIGS. 3A-3B
SMARCA4 [3] = target: T1, SMARCA4; experiment: Single dose pharmacodynamics, SMARCA4 in LNCaP tumors by western blot; format: in vivo; design: from tissue; host or cells: LNCaP xenograft tumours from CB17 SCID mice; conditions: mouse, LNCaP tumors in mice, tumors collected 1-5 days later, read-out: maximal degradation of SMARCA4
Protocol: (§4) In-life evaluation was conducted using 6-8-week-old male CB17 SCID mice that were subcutaneously inoculated with LNCaP tumor cells mixed 1:1 with Matrigel. Mice were castrated 3 days prior to randomization, which was done when tumors for efficacy evaluation would reach 100 mm^3-400 mm^3. […] Tumors were subsequently homogenized, and proteins were extracted before evaluating SMARCA2 and SMARCA4 expression by western blot.

[4] = Tolerability in the LNCaP CDX efficacy study; conditions: CB17 SCID mice with LNCaP tumors
Protocol: In-life evaluation was conducted using 6-8-week-old male CB17 SCID mice that were subcutaneously inoculated with LNCaP tumor cells mixed 1:1 with Matrigel. Mice were castrated 3 days prior to randomization, which was done when tumors for efficacy evaluation would reach 100 mm^3-400 mm^3.

SMARCA2 [5] = target: T2, SMARCA2; experiment: Single dose pharmacodynamics, SMARCA2 in LNCaP tumors by western blot; format: in vivo; design: from tissue; host or cells: LNCaP xenograft tumours from CB17 SCID mice; conditions: mouse, LNCaP tumors in mice, tumors collected 1-5 days later, read-out: maximal degradation of SMARCA2
Protocol: as §4

[6] = Body weight and survival of mice in the PC3 tumor study; format: in vivo, mouse; conditions: weekly administration, FIGS. 3A-3B
[7] = tested on: PSMA+ prostate cancer CDX (LNCaP); experiment: Anti-tumor efficacy in PSMA+ prostate cancer CDX (LNCaP); format: in vivo; conditions: castrated male CB17 SCID mice, 10 mg/kg s.c. Q3D, day 21
Protocol: as §4

[8] = tested on: SMARCA4 mutated cancer cells; conditions: Vangamudi et al. Cancer Res 2015; cited from earlier work
[9] = iv, single dose 20 mg/kg i.v. infusion

T2 sequence (P51531 whole entry): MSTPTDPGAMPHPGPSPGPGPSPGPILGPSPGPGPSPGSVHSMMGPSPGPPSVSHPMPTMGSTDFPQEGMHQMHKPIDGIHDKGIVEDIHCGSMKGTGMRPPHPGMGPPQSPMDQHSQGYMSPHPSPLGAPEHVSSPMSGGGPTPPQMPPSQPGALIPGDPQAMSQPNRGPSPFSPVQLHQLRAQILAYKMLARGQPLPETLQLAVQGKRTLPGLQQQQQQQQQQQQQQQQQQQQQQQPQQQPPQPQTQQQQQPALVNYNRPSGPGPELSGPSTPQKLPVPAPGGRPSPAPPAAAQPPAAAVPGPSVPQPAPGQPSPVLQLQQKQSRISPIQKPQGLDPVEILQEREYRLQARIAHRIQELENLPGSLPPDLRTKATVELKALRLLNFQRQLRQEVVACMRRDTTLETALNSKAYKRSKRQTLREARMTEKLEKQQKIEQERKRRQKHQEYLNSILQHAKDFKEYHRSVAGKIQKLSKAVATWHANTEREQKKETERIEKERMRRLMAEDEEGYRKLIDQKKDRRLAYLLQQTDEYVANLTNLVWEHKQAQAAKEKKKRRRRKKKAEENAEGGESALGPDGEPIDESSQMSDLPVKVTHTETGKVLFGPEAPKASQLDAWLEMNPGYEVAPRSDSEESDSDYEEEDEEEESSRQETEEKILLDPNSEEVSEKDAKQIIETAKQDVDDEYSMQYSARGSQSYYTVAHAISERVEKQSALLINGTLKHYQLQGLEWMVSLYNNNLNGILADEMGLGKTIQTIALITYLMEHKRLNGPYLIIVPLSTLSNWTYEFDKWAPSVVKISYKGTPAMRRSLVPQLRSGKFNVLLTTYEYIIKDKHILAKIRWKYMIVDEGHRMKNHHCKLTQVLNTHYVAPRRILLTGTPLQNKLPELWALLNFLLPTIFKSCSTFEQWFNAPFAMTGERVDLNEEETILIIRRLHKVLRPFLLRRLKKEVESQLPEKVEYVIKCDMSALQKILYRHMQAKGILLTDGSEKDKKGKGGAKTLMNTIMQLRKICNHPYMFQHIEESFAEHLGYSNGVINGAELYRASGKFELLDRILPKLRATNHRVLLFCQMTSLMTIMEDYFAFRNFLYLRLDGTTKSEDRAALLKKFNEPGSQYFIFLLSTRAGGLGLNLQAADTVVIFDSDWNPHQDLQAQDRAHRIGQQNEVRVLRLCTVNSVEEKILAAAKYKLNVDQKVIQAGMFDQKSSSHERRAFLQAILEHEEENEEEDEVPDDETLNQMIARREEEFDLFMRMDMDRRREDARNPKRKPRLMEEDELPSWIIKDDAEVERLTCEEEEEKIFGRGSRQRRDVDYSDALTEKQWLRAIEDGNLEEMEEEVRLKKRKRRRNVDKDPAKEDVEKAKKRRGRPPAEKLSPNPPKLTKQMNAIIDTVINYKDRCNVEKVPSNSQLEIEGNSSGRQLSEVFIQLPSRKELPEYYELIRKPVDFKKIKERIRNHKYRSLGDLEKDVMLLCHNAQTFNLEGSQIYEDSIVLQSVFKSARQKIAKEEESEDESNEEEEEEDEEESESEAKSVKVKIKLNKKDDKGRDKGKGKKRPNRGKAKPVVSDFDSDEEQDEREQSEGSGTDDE
T1 sequence (P51532 whole entry): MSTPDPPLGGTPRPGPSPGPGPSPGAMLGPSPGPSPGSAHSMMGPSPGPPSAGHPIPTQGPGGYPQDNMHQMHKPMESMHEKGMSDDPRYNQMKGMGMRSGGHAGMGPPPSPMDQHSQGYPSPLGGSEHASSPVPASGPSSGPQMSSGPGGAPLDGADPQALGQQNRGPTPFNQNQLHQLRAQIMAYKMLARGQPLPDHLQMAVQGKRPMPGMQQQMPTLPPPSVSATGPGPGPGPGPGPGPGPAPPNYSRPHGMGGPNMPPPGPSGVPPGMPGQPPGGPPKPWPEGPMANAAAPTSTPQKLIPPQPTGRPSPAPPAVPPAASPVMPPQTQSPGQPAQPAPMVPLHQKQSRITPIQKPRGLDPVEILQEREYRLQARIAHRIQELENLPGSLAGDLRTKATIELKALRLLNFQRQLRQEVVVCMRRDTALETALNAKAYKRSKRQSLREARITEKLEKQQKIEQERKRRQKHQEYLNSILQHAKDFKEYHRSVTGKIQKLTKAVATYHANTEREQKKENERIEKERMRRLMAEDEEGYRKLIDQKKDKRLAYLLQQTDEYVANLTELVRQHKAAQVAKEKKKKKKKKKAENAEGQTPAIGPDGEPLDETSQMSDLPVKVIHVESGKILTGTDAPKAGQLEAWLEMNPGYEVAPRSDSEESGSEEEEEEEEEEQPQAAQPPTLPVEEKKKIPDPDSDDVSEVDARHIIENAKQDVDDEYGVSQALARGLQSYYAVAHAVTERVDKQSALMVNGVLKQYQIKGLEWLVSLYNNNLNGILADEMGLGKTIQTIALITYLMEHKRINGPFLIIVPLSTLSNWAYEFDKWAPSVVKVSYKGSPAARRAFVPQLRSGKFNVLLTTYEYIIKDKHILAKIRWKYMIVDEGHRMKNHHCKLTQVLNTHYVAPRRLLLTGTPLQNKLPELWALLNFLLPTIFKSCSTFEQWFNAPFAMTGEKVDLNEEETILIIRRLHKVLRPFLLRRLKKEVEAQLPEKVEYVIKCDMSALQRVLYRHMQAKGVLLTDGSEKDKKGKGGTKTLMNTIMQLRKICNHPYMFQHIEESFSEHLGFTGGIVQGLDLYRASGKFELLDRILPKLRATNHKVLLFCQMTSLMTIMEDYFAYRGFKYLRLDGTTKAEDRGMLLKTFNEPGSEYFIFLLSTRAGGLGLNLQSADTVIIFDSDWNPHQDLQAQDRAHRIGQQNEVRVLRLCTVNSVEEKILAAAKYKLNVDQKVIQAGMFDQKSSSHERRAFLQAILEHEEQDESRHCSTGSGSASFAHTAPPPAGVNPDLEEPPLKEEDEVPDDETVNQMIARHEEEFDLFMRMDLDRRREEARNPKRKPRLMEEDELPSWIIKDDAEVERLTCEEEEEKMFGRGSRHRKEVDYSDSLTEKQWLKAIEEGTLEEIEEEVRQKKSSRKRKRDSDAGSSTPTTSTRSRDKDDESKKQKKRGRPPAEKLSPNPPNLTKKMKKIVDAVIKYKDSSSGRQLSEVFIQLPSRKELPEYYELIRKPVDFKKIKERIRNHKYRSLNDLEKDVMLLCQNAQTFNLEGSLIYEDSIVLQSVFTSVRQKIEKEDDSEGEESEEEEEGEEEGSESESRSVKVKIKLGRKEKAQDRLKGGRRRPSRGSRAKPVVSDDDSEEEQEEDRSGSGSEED

SMILES: CC[C@]12CNc3nnc(-c4ccccc4O)cc3N1C[C@H](Oc1ncc(CN3CCN(c4ccc5c(c4)C(=O)N([C@H]4CCC(=O)NC4=O)C5)CC3)cc1C)C2 [Compound 6]
- DC50 (SMARCA4 [1]): < 0.1 nM
- Dmax (SMARCA4 [1]): > 90%
- DC50 (SMARCA2 [2]): < 0.1 nM
- Dmax (SMARCA2 [2]): > 90%

SMILES: Cc1ncsc1-c1ccc([C@H](C)NC(=O)[C@@H]2C[C@@H](O)CN2C(=O)[C@@H](c2cc(OCCN3CCC(CN4CCN5c6cc(-c7ccccc7O)nnc6NC[C@H]5C4)CC3)no2)C(C)C)cc1 [Compound 2]
- tumor growth inhibition (PSMA negative PC3 tumors): efficacious
- Dmax at 10 mg/kg (SMARCA4 [3]; sc, single dose 10 mg/kg s.c.): 86%
- mice died during the study ([4]; 10 mg/kg s.c. Q3D): 83.3%
- Dmax at 10 mg/kg (SMARCA2 [5]; sc, single dose 10 mg/kg s.c.): 99%
- mouse body weight loss and death [6]: caused mouse body weight loss and death
- tumor growth inhibition (TGI) [7]: 93%

SMILES: O=C(/C=C/N1C[C@H]2C[C@@H]1CN2c1ccccn1)c1ccccc1O [PFI-3]
- effects on cell proliferation inhibition [8]: none to minor effects

SMILES: Cc1ncsc1-c1ccc([C@H](C)NC(=O)[C@@H]2C[C@@H](O)CN2C(=O)[C@@H](c2cc(OCCN3CCC(N4CCN5c6cc(-c7ccccc7O)nnc6N[C@@H](C)[C@@H]5C4)CC3)no2)C(C)C)cc1 [Compound 11]
- DC50 (SMARCA4 [1]): 1 to 10 nM
- Dmax (SMARCA4 [1]): > 90%
- DC50 (SMARCA2 [2]): 0.1 to 1 nM
- Dmax (SMARCA2 [2]): > 90%

SMILES: Cc1ncsc1-c1ccc([C@H](C)NC(=O)[C@@H]2C[C@@H](O)CN2C(=O)[C@@H](c2cc(OCCN3CCC(N4CCN5c6cc(-c7ccccc7O)nnc6N[C@H](C)[C@@H]5C4)CC3)no2)C(C)C)cc1 [Compound 12]
- DC50 (SMARCA4 [1]): 1 to 10 nM
- Dmax (SMARCA4 [1]): > 90%
- DC50 (SMARCA2 [2]): 1 to 10 nM
- Dmax (SMARCA2 [2]): > 90%

SMILES: CC[C@]12CNc3nnc(-c4ccccc4O)cc3N1C[C@H](Oc1ncc(CN3CCN(c4ccc5c(c4)C(=O)N([C@H]4CCC(=O)NC4=O)C5)CC3)nc1C)C2 [Compound 8]
- DC50 (SMARCA4 [1]): 0.1 to 1 nM
- Dmax (SMARCA4 [1]): > 90%
- DC50 (SMARCA2 [2]): < 0.1 nM
- Dmax (SMARCA2 [2]): > 90%

SMILES: C[C@]12CNc3nnc(-c4ccccc4O)cc3N1C[C@H](Oc1ccc(CN3CCN(c4ccc5c(c4)C(=O)N([C@H]4CCC(=O)NC4=O)C5)CC3)cn1)C2 [Compound 1]
- tumor growth inhibition (PSMA negative PC3 tumors): did not induce significant tumor growth inhibition
- Dmax at 20 mg/kg (SMARCA4 [3]; [9]): 83%
- DC50 (SMARCA4 [1]): 0.1 to 1 nM
- Dmax (SMARCA4 [1]): > 90%
- body weight loss ([4]; 20 mg/kg i.v. infusion QW): minimal
- mouse deaths ([4]; 20 mg/kg i.v. infusion QW): no mouse deaths
- Dmax at 20 mg/kg (SMARCA2 [5]; [9]): 98%
- DC50 (SMARCA2 [2]): < 0.1 nM
- Dmax (SMARCA2 [2]): > 90%

SMILES: CC[C@]12CNc3nnc(-c4ccccc4O)cc3N1C[C@H](Oc1ncc(C(=O)N3CCN(c4ccc5c(c4)C(=O)N([C@H]4CCC(=O)NC4=O)C5)CC3)cc1C)C2 [Compound 7]
- DC50 (SMARCA4 [1]): 0.1 to 1 nM
- Dmax (SMARCA4 [1]): 50 to 90%
- DC50 (SMARCA2 [2]): < 0.1 nM
- Dmax (SMARCA2 [2]): > 90%

SMILES: CC[C@]12CNc3nnc(-c4ccccc4O)cc3N1C[C@H](Oc1ccc(CN3CCN(c4ccc5c(c4)C(=O)N([C@H]4CCC(=O)NC4=O)C5)CC3)cn1)C2 [Compound 9]
- DC50 (SMARCA4 [1]): 0.1 to 1 nM
- Dmax (SMARCA4 [1]): > 90%
- DC50 (SMARCA2 [2]): < 0.1 nM
- Dmax (SMARCA2 [2]): > 90%

SMILES: C[C@]12CNc3nnc(-c4ccccc4O)cc3N1C[C@H](Oc1ncc(CN3CCN(c4ccc5c(c4)C(=O)N([C@H]4CCC(=O)NC4=O)C5)CC3)cc1F)C2 [Compound 2]
- DC50 (SMARCA4 [1]): 0.1 to 1 nM
- Dmax (SMARCA4 [1]): > 90%
- DC50 (SMARCA2 [2]): 0.1 to 1 nM
- Dmax (SMARCA2 [2]): > 90%

SMILES: Cc1ncsc1-c1ccc([C@H](C)NC(=O)[C@@H]2C[C@@H](O)CN2C(=O)[C@@H](c2cc(OCCN3CCC(N4CCN5c6cc(-c7ccccc7O)nnc6N[C@H](C)[C@H]5C4)CC3)no2)C(C)C)cc1 [Compound 13]
- DC50 (SMARCA4 [1]): 1 to 10 nM
- Dmax (SMARCA4 [1]): > 90%
- DC50 (SMARCA2 [2]): 0.1 to 1 nM
- Dmax (SMARCA2 [2]): > 90%

SMILES: Cc1cc(C(=O)N2CCN(c3ccc4c(c3)C(=O)N([C@H]3CCC(=O)NC3=O)C4)CC2)cnc1O[C@H]1CN2c3cc(-c4ccccc4O)nnc3NC[C@]2(C)C1 [Compound 5]
- DC50 (SMARCA4 [1]): 0.1 to 1 nM
- Dmax (SMARCA4 [1]): 50 to 90%
- DC50 (SMARCA2 [2]): < 0.1 nM
- Dmax (SMARCA2 [2]): > 90%

SMILES: Cc1cc(CN2CCN(c3ccc4c(c3)C(=O)N([C@H]3CCC(=O)NC3=O)C4)CC2)cnc1O[C@H]1CN2c3cc(-c4ccccc4O)nnc3NC[C@]2(C)C1 [Compound 3]
- DC50 (SMARCA4 [1]): 0.1 to 1 nM
- SMARCA4 Dmax (SMARCA4 [1]): B (50%<Dmax≤90%)
- DC50 (SMARCA2 [2]): 0.1 to 1 nM
- Dmax (SMARCA2 [2]): > 90%

SMILES: Cc1ncsc1-c1ccc([C@H](C)NC(=O)[C@@H]2C[C@@H](O)CN2C(=O)[C@@H](c2cc(OCCN3CCC(N4CCN5c6cc(-c7ccccc7O)nnc6N[C@@H](C)[C@H]5C4)CC3)no2)C(C)C)cc1 [Compound 14]
- DC50 (SMARCA4 [1]): 1 to 10 nM
- Dmax (SMARCA4 [1]): 50 to 90%
- DC50 (SMARCA2 [2]): 1 to 10 nM
- Dmax (SMARCA2 [2]): 50 to 90%

SMILES: Cc1cc(CN2CCN(c3ccc4c(c3)C(=O)N([C@H]3CCC(=O)NC3=O)C4)CC2)cnc1O[C@H]1CN2c3cc(-c4ccccc4O)nnc3NC[C@]2(C)C1 [Compound 4]
- DC50 (SMARCA4 [1]): 0.1 to 1 nM
- SMARCA4 Dmax (SMARCA4 [1]): A (Dmax>90%)
- DC50 (SMARCA2 [2]): < 0.1 nM
- SMARCA2 Dmax (SMARCA2 [2]): A (Dmax>90%)

SMILES: CC[C@]12CNc3nnc(-c4ccccc4O)cc3N1C[C@H](Oc1ccc(CN3CCC(c4ccc5c(c4)C(=O)N([C@H]4CCC(=O)NC4=O)C5)CC3)cn1)C2 [Compound 10]
- DC50 (SMARCA4 [1]): 0.1 to 1 nM
- Dmax (SMARCA4 [1]): 50 to 90%
- DC50 (SMARCA2 [2]): 0.1 to 1 nM
- Dmax (SMARCA2 [2]): > 90%
